Data taken from patent US6114334A, “Piperazine derivatives as therapeutic agents” (Knoll Aktiengesellschaft, priority 1995, dated 2000).

Assays:
α1-adrenoceptors = assay: inhibition of 7-methoxy-[3H]prazosin binding to α1-adrenoceptors in vitro; parameters: species or system rat (male Charles River CD, whole cortical tissue); details: rat whole cortex, 30 min; for Ki: 7-methoxy-[3H]prazosin 0.1 nM, 30° C.
Description: Whole cortical tissue from the brains of male Charles River CD rats weighing between 150-250 g were homogenised in ice-cold 50 mM Tris-HCl, pH 7.6 (at 25° C.; 1:40 w/v) and centrifuged at 1000 g at 4° C. for 10 minutes. The supernatant was centrifuged at 30,000 g at 4° C. for 10 minutes. The pellet was rehomogenised in 50 mM Tris-HCl, pH 7.6 (1:40 w/v) and centrifuged at 30,000 g at 4° C. for 10 minutes. The final pellet was resuspended in 50 mM Tris-HCl, pH 7.6 (equivalent to 12.5 mg wet weight of tissue/ml) and used immediately in the binding assay. Aliquots (400 μl; equivalent to 5 mg wet weight of tissue/tube) of this suspension were added to tubes containing the ligand (50 μl; 0.1 nM) and distilled water (50 μl; total binding) or phentolamine (50 μl; 5 μM; non-specific binding) or test compound (50 μl; at a single concentration of 10^-6 M or at 10 concentrations ranging from 10^-11 -10^-3 M). The ligand was 7-methoxy-[^3 H]prazosin and the mixture was incubated at 30° C. for 30 minutes before the incubation was terminated by rapid filtration. The filters were washed with ice-cold Tris-HCl buffer and dried. The filters were punched out into vials, scintillation fluid added and radioactivity determined by liquid scintillation counting. The percentage displacement of specific binding of the tritiated ligand was calculated for the single concentration (10^-6 M) of test compound. […] The concentration which gave 50% inhibition of specific binding (IC50) was obtained from the curve. The inhibition coefficient Ki was then calculated using the formula [formula] in which [ligand] is the concentration of the tritiated ligand used and KD is the equilibrium dissociation constant for the ligand.

D2 dopamine receptors = D2 dopamine receptors (Rattus norvegicus, UniProt P61169); assay: inhibition of tritiated (S)-sulpiride binding to D2 dopamine receptors in vitro; parameters: species or system rat (male Charles River CD, striatal tissue); details: rat striatum; for Ki: tritiated (S)-sulpiride 1 nM, 4° C., 40 min
D2 dopamine receptors, sequence (P61169 whole entry): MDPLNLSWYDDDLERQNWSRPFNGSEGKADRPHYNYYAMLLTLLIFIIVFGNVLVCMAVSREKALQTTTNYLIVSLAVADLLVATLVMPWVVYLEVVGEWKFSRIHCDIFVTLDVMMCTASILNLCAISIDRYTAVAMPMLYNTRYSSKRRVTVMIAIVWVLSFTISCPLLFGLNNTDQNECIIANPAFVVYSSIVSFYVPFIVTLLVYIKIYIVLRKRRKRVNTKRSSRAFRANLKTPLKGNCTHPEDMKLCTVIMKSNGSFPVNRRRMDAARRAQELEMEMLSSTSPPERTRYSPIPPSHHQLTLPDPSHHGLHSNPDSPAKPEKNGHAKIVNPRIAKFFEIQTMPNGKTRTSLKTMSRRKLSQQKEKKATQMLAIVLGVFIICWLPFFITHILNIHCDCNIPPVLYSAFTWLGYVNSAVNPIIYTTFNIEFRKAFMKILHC

α2D-adrenoceptors = target: T1, α2D-adrenoceptors (Rattus norvegicus, UniProt P22909); assay: inhibition of tritiated idazoxan binding to α2D-adrenoceptors in vitro; parameters: species or system rat (male Charles River CD, frontal cortical tissue); details: rat frontal cortex; for Ki: [3H]idazoxan 1 nM, 0° C., 75 min
T1 sequence (P22909 1-465): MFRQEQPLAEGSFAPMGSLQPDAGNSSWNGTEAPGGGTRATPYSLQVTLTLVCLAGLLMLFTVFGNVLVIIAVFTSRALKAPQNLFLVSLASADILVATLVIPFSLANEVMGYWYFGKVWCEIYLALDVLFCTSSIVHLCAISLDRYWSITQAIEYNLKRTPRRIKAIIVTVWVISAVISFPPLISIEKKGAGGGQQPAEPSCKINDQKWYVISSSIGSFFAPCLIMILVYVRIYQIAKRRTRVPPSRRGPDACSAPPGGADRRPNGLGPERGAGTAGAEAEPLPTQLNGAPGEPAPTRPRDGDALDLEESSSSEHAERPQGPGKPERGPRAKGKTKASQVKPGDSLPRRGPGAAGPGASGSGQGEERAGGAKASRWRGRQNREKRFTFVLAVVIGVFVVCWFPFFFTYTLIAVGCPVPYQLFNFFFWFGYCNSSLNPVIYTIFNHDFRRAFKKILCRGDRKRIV

5-HT1A receptors = target: T2, 5-HT1A receptors (Rattus norvegicus, UniProt P19327); assay: inhibition of [3H]8-OH-DPAT binding to 5-HT1A receptors in vitro; parameters: species or system rat (male Sprague-Dawley, hippocampal tissue); details: rat hippocampus; for Ki: [3H]8-OH-DPAT 2 nM, 25° C., 30 min; for inhibition at 1 µM: 10^-6 M, [3H]8-OH-DPAT, read-out: % displacement at 10^-6 M, 5-HT1A
T2 sequence (P19327 1-422): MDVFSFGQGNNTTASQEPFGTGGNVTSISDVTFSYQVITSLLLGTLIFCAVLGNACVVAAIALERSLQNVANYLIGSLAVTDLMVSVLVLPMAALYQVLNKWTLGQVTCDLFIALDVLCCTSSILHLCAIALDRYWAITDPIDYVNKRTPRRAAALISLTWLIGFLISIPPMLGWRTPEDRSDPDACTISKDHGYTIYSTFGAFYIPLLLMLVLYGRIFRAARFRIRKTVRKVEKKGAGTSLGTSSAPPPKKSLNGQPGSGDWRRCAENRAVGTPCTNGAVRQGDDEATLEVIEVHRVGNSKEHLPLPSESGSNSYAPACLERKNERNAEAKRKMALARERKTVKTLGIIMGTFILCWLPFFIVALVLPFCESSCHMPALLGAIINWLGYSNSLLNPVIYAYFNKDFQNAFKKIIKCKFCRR
Description: Hippocampal tissue from the brains of male Sprague-Dawley rats (Charles River; weight range 150-250 g) was homogenised in ice-cold 50 mM Tris-HCl buffer (pH 7.7 when measured at 25° C., 1:40 w/v) and centrifuged at 30,000 g at 4° C. for 10 minutes. The pellet was rehomogenised in the same buffer, incubated at 37° C. for 10 minutes and centrifuged at 30,000 g at 4° C. for 10 minutes. The final pellet was resuspended in 50 mM Tris-HCl buffer (pH 7.7) containing 4 mM CaCl2. 0.1% L-ascorbic acid and 10 μM pargyline hydrochloride (equivalent to 6.25 mg wet weight of tissue/ml) and used immediately in the binding assay. Aliquots (400 μl; equivalent to 2.5 mg wet weight of tissue/tube) of this suspension were added to tubes containing the ligand (50 μl; 2 nM) and distilled water (50 μl; total binding) or 5-HT (50 μl; 10 μM; non-specific binding) or test compound (50 μl; at a single concentration of 10^-6 M or at 10 concentrations ranging from 10^-11 -10^-3 M). The ligand was [^3 H]8-hydroxy-2-(dipropylamino)tetralin ([^3 H]8-OH-DPAT) and the mixture was incubated at 25° C. for 30 minutes before the incubation was terminated by rapid filtration.
The filters were washed with ice-cold Tris-HCl buffer and dried. The filters were punched out into vials, scintillation fluid added and radioactivity determined by liquid scintillation counting. The percentage displacement of specific binding of the tritiated ligand was calculated for the single concentration (10^-6 M) of test compound. Displacement curves were then produced for those compounds which displaced ≥50% of specific binding of the tritiated ligand at 10^-6 M using a range of concentrations of the compound. The concentration which gave 50% inhibition of specific binding (IC50) was obtained from the curve. The inhibition coefficient Ki was then calculated using the formula [formula] in which [ligand] is the concentration of the tritiated ligand used and KD is the equilibrium dissociation constant for the ligand.

SMILES	Ki (α1-adrenoceptors)	Ki (D2 dopamine receptors)	Ki (α2D-adrenoceptors)	Ki (5-HT1A receptors)	inhibition at 1 µM (5-HT1A receptors)	inhibition at 1 µM (D2 dopamine receptors; 10^-6 M, tritiated (S)-sulpiride, read-out: % displacement at 10^-6 M, D2)	% displacement at 10^-6 M, α1 (α1-adrenoceptors; 10^-6 M, 7-methoxy-[3H]prazosin, 1 µM)	inhibition at 1 µM (α2D-adrenoceptors; 10^-6 M, [3H]idazoxan, read-out: % displacement at 10^-6 M, α2D)
COc1ccccc1N1CCN(Cc2c(N)n(C)n(-c3ccccc3)c2=O)CC1 [Example 1, 3-amino-4-[4-(2-methoxyphenyl)piperazin-1-ylmethyl]-2-methyl-1-phenyl-3-pyrazolin-5-one]	23 nM	192 nM	130 nM	169 nM				
COc1ccccc1N1CCN(Cc2c(C3CC3)nn(-c3ccccc3)c2N)CC1 [Example 9, 5-amino-3-cyclopropyl-4-[4-(2-methoxyphenyl)piperazin-1-ylmethyl]-1-phenylpyrazole]	9 nM	374 nM	81 nM	49 nM				
Nc1c(CN2CCN(c3cccc(C(F)(F)F)c3)CC2)c(C2CC2)nn1-c1ccccc1 [Example 15, 5-Amino-3-cyclopropyl-1-phenyl-4-{4-[3-(trifluoromethyl)phenyl]piperazin-1-ylmethyl}pyrazole]	> 500 nM	337 nM	> 500 nM		67%			
C=CCN1C(=O)C(C)(CN2CCN(c3ccccc3OC)CC2)N=C1c1cccnc1 (centres unmarked) [Example 39, 1-allyl-4-[4-(2-methoxyphenyl)piperazin-1-ylmethyl]-4-methyl-2-(3-pyridyl)-2-imidazolin-5-one]	> 500 nM		115 nM	101 nM		72%		
C=CCn1c(-c2cccnc2)nn(CN2CCN(c3cccc4c3OCCO4)CC2)c1=S [Example 45, 4-allyl-2-[4-(1,4-benzodioxan-5-yl)piperazin-1-ylmethyl]-5-(3-pyridyl)-1,2,4-triazole-3(2H,4H)-thione]	> 500 nM	322 nM	225 nM	31 nM				
C=CCn1c(-c2cccnc2)nn(CCCCN2CCN(c3ccccc3OC)CC2)c1=O [Example 46, 4-allyl-2-{4-[4-(2-methoxyphenyl)piperazin-1-yl]butyl}-5-(3-pyridyl)-1,2,4-triazol-3(2H,4H)-one]	16 nM	48 nM	> 500 nM	64 nM				
C=CCn1c(-c2cccnc2)nn(CN2CCN(c3ccccc3OC)CC2)c1=S [Example 47, 4-Allyl-2-[4-(2-methoxyphenyl)piperazin-1-ylmethyl]-5-(3-pyridyl)-1,2,4-triazole-3(2H,4H)-thione]	> 500 nM	262 nM	178 nM	152 nM				
COc1ccccc1N1CCN(Cn2nc(-c3ccc(Cl)cc3)n(-c3cccnc3)c2=S)CC1 [Example 48, 5-(4-Chlorophenyl)-2-[4-(2-methoxyphenyl)piperazin-1-ylmethyl]-4-(3-pyridyl)-1,2,4-triazole-3(2H,4H)-thione]	430 nM	200 nM	71 nM	108 nM				
C=CCn1c(-c2ccncc2)nn(CN2CCN(c3ccccc3OC)CC2)c1=S [Example 49, 4-Allyl-2-[4-(2-methoxyphenyl)piperazin-1-ylmethyl]-5-(4-pyridyl)-1,2,4-triazole-3(2H,4H)-thione]	> 500 nM	121 nM	146 nM	123 nM				
COCCCn1c(-c2ccncc2)nn(CN2CCN(c3ccccc3OC)CC2)c1=S [Example 50, 2-[4-(2-Methoxyphenyl)piperazin-1-ylmethyl]-4-(3-methoxypropyl)-5-(4-pyridyl)-1,2,4-triazole-3(2H,4H)-thione]	> 500 nM	192 nM	194 nM	170 nM				
COc1ccccc1N1CCN(Cn2nc(-c3ccncc3)n(C)c2=S)CC1 [Example 51, 2-[4-(2-Methoxyphenyl)piperazin-1-ylmethyl]-4-methyl-5-(4-pyridyl)-1,2,4-triazole-3(2H,4H)-thione]		134 nM	> 500 nM		54%		53%	
C=CCn1c(-c2ccccc2)nn(CN2CCN(c3ccccc3OC)CC2)c1=S [Example 52, 4-Allyl-2-[4-(2-methoxyphenyl)piperazin-1-ylmethyl]-5-phenyl-1,2,4-triazole-3(2H,4H)-thione]	> 500 nM	222 nM	148 nM	150 nM				
CCCn1c(-c2ccncc2)nn(CN2CCN(c3ccccc3OC)CC2)c1=S [Example 53, 2-[4-(2-Methoxyphenyl)piperazin-1-ylmethyl]-4-propyl-5-(4-pyridyl)-1,2,4-triazole-3(2H,4H)-thione]	> 500 nM	274 nM	150 nM	117 nM				
COc1ccccc1N1CCN(Cn2nc(C(F)(F)F)n(C)c2=S)CC1 [Example 54, 2-[4-(2-Methoxyphenyl)piperazin-1-ylmethyl]-4-methyl-5-(trifluoromethyl)-1,2,4-triazole-3(2H,4H)-thione]	477 nM	243 nM	218 nM	135 nM				
COc1ccccc1N1CCN(Cn2ncn(C)c2=S)CC1 [Example 55, 2-[4-(2-Methoxyphenyl)piperazin-1-ylmethyl]-4-methyl-1,2,4-triazole-3(2H,4H)-thione]	358 nM	73 nM	194 nM	108 nM				
C=CCn1c(-c2ccco2)nn(CN2CCN(c3ccccc3OC)CC2)c1=S [Example 56, 4-Allyl-5-(2-furyl)-2-[4-(2-methoxyphenyl)piperazin-1-ylmethyl]-1,2,4-triazole-3(2H,4H)-thione]	401 nM	158 nM	197 nM	105 nM				
C=CCn1c(-c2cccnc2)nn(CN2CCN(c3ncccn3)CC2)c1=S [Example 57, 4-Allyl-5-(3-pyridyl)-2-[4-(pyrimidin-2-yl)piperazin-1-ylmethyl]-1,2,4-triazole-3(2H,4H)-thione]	> 500 nM	> 500 nM		> 500 nM				95%
C=CCn1c(-c2ccccn2)nn(CN2CCN(c3ccccc3OC)CC2)c1=S [Example 58, 4-Allyl-2-[4-(2-methoxyphenyl)piperazin-1-ylmethyl]-5-(2-pyridyl)-1,2,4-triazole-3(2H,4H)-thione]	301 nM	173 nM	104 nM	126 nM				
C=CCn1c(C)nn(CN2CCN(c3ccccc3OC)CC2)c1=S [Example 59, 4-Allyl-2-[4-(2-methoxyphenyl)piperazin-1-ylmethyl]-5-methyl-1,2,4-triazole-3(2H,4H)-thione]	497 nM	306 nM	255 nM	119 nM				
C=CCn1c(-c2cccs2)nn(CN2CCN(c3ccccc3OC)CC2)c1=S [Example 60, 4-Allyl-2-[4-(2-methoxyphenyl)piperazin-1-ylmethyl]-5-(2-thienyl)-1,2,4-triazole-3(2H,4H)-thione]	159 nM	155 nM	82 nM	138 nM				
